From patent US8124408B2, “Preparation of inactivated artificial antigen presenting cells and their use in cell therapies” (Janssen Pharmaceutica N.V., priority 2006, dated 2012) come the findings set out here.

The test system of experiment [1] is baculovirus. Description: baculovirus/Sf9 infectivity assay. Format: cell-based. The following applies: for Virus Titer (10^−4) / Virus Titer (10^−5): UVADEX 5 μg/ml, virus added, Sf9 cells, triplicate. Here is the method: A baculovirus/Sf9 infectivity assay was used to determine if psoralen-derivative/UVA treatment was sufficient to inactivate viruses associated with virus-infected insect cells. Sf9 insect cells were infected with BacPAK6 viral stock and incubated at room temperature for one hour (BacPAK6 baculovirus rapid titer kit; BD Biosciences Clontech). […] Five days after irradiation, culture supernatants were collected. From these, new viral stocks were prepared via serial dilutions of 10^−3, 10^−4 and 10^−5, respectively. These serially diluted stock dilutions were each used to infect a second set of fresh (i.e., not previously infected) Sf9 cell cultures. This second set of cultures was overlaid with methylcellulose and grown for approximately 48 hours. Culture supernatants of this second set of cultures were discarded and a mouse monoclonal anti-gp64 (baculovirus-specific) protein antibody (Invitrogen) was added. After an inbubation period and several washes to remove unbound anti-gp64 antibody, a goat-anti-mouse polyclonal antibody conjugated to horseradish peroxidase (i.e., secondary antibody obtained from Invitrogen) was added. Unbound secondary antibody was removed with several washes, and […] was added. The number of stained foci was counted and the virus titer (pfu/ml) was calculated according to the manufacturer's instructions.

Experiment [2] deals with baculovirus. Kind of experiment: baculovirus titer by rapid microtiter assay after UVADEX/UVA treatment of infected Sf9 cells. In kind it is cell-based. The following applies: UVADEX 5 μg/ml. Here is the method:
The treated cells were then cultured at 28° C. for 4 days. Cultured supernatant was collected and used to infect fresh, uninfected cultures of Sf9 cells seeded in 96-well plates. Baculovirus present in these Sf9 cultures was detected by a rapid microtiter assay (Invitrogen) using a gp64-specific antibody, and baculovirus titers were calculated.
In a similar experiment, Sf9 cells were infected with the titrated doses of baculovirus as described above. […] The treated cells were then cultured at 28° C. for four days. The culture supernatant was collected and used to infect a new culture of Sf9 cells seeded in 96-well plates. Baculovirus in the Sf9 cells was detected by a rapid microtiter assay (Invitrogen). The culture plates were overlaid with methylcellulose and cultured for 48 hrs. Baculovirus was detected by immunoassay with a gp64-specific antibody (Invitrogen). The number of foci in each well was counted and the virus titer (pfu/ml) of the supernatant of the infected cells was calculated according to the manufacturer's instructions.

Experiment [3] has as its system xenogenic HLA A2.1, B7-1, B7-2, and β2m transcripts. Kind of experiment: RT-PCR of xenogenic nucleic acid transcription in xAPC/clone D cocultures. The following applies: UVADEX 5 μg/ml and UVA 5, 15 or 30 minutes, 10 weeks coculture with clone D. Format: cell-based, Drosophila. From the text: RT-PCR products were then visualized by agarose gel electrophoresis.
It was possible that xenogenic nucleic acid introduced into the xAPCs might have remained active, even though the xAPCs themselves were rendered nonproliferative. […] Each culture of xAPCs was washed and cocultured for 10 weeks with an indicator Drosophila cell line designated herein as clone D, which is a cell line that has not been modified by introduction of xenogenic nucleic acid. Reverse transcriptase (RT)-PCR reactions using primers specific for xenogenic HLA A2.1, B7-1, B7-2, and β2m transcripts were then performed on extracts of the cocultures.

For experiment [4], the system named is CD8^+ T cells. Description: K^b/OVA8 tetramer staining of mouse CD8+ T cells activated with xAPCs. Format: cell-based, mice. Here is the method:
Lanes 1 and 2, percentage of stained CD8^+ T cells isolated form and activated from wild type mice (B6), as described in FIG. 8A (performed as a positive control).
IL-2 was added on day three and day five of the xAPC/naïve CD8^+ T cell coculture. The coculture was split on day seven of the coculture period, and on day nine the cultured CD8^+ T cells were collected. An OVA8/MHC tetramer (Beckman Coulter) preparation was prepared and 10 μl was mixed with 1×10^6 CD8^+ T cells/100 μl of FACS buffer (0.5% BSA, 0.2%, NaN3 in PBS). The K^b/OVA8 tetramers consisted of four MHC molecules bound to the OVA8 peptide, which was conjugated to a fluorescent protein. The mixture was incubated at room temperature for 30 minutes and washed in PBS, and then spun down at 400×g for 5 minutes. The cell pellet was resuspended in FACS buffer (500 μl) and immediately read on a FACScan flow cytometry machine at an excitation wavelength of 486 nm-580 nm and an emission wavelength of 586 nm-590 nm.

Another experiment concerns HLA-A2, B7-1, and ICAM-1. Description: FACS of exogenous molecules in xAPC clone B/clone D cocultures. The following applies: UVADEX/UVA 5 μg/ml, 10 weeks coculture with clone D. In kind it is cell-based, Drosophila. The method, then: (§1) FACS analysis was carried out by independently using antibodies specific for human HLA, human B7.1, and ICAM-1, as indicated.
For comparison, γ-radiation-treated xAPC clone B/clone D cocultures and untreated xAPC clone B/clone D cocultures were analyzed by FACS as well.
The cells from each culture were washed and then and cocultured with clone D indicator cells for 10 weeks. The cocultured cells were collected and aliquoted, and each aliquot was stained with one of HLA-A2, B7-1, and ICAM-1 fluorescein isothiocyanate (FITC)-conjugated monoclonal antibodies (mAbs), respectively. The stained cocultures were then analyzed by FACS.

Experiment [5] concerns lytic virus associated with Drosophila xAPCs. Kind of experiment: infectivity of xAPC viral stock on Drosophila clone D indicator cells. Format: cell-based. Here is the method:
Thus, a xAPC culture containing approximately 6×10^8 Drosophila xAPCs (clone B) was collected, suspended in 0.6 ml Schneider's media on ice, and sonicated for 30 seconds. Cell debris was pelleted by centrifugation, and the supernatant collected and layered onto a cesium chloride (CsCl) cushion, which was at a density of 1.2 (20% w/w CsCl), at a ratio of three volumes of supernatant to one volume of CsCl. The supernatant-loaded CsCl cushion was then ultracentrifuged at 25,000 rpm for four hours. Viral fractions were collected and the fraction densities measured. Three milliliter fractions at a density of 1.0 to 1.2 were pooled and dialyzed against phosphate-buffered saline (PBS), generating a viral stock, and the viral stock stored at −80° C. until use. […] Independent cultures (1×10^6 cells/culture) of the Drosophila clone D indicator cell line were incubated at 28° C. with either the treated and untreated viral aliquots. After a three-day incubation period, the indicator cell cultures were harvested and stained with propidium iodide (PI) (1 μg/1×10^6 cells) at 4° C. for 10 minutes. The live and lytic cells were analyzed by FACS, with the results depicted in FIGS. 4A-4C.
After a three-day incubation period, the percentage of viable cells was quantified in each indicator cell line culture. […]

Experiment [6] deals with CD8^+ T cells. The source says:
Human rIL-2 (20 units/ml) and rIL-7 (30 units/ml) were each added to the culture at day 5. The CD8^+ T cells were restimulated twice on the seventh and fifteenth days of the culture period with non-CD8 adherent cells in PBMC from the same donor in the presence of the MART-1 peptides. The expanded CD8^+ T cells were then stained with MART-1 tetramers (Beckman Coulter) consisting of four MHC molecules bound to the MART-1 peptide, which was conjugated to a fluorescent protein, and analyzed by FACS.

In a further experiment the test system is Drosophila clone B xAPCs. Description: xAPC proliferation, viable cell count by trypan blue staining. Format: cell-based.
Source text: (§2) Viable (i.e., live) xAPCs were counted on day 1, day 5, day 9, day 14, and day 16 post-treatment by trypan blue staining of each culture.
as §2

The next experiment deals with HLA-A2, B7-1, or ICAM-1. The following applies: UVADEX 5 μg/ml, UVA 0, 5 or 15 minutes. Here is the method: as §1
The xAPC cultures were washed and stained with monoclonal antibodies specific for HLA-A2, B7-1, or ICAM-1 and analyzed by FACS.

Experiment [7] deals with CD8^+ T cells. Kind of experiment: APC function of glutaraldehyde-fixed Drosophila xAPCs. In kind it is cell-based. The settings on record: xAPCs fixed with 0.3% glutaraldehyde. The source says: Inactivation of Drosophila cells was initially attempted with glutaraldehyde fixation in the absence of preservative.
The mark [8] stands for this setting: UVA irradiation time 10 minutes.

Like-named read-outs stand apart in the source and are kept apart here.

Turning to `COc1c2occc2cc2ccc(=O)oc12` [UVADEX, 9-methoxy-7H-furo[3,2-g]-1-benzopyran-7-one], the “infectious virus in viral stock obtained in the supernatant” value with baculovirus [1] (5 mcg/ml 8-MOPs, UVA 320-380 nm for 5 minutes, infected Sf9 cells) is “does not contain infectious virus”. The “Virus Titer (10^−4)” value with baculovirus [1] (UVA irradiation time 5 minutes) and in the experiment on baculovirus [1] (setting [8]) was 0 each time. Also, the “Virus Titer (10^−5)” value in the experiment on baculovirus [1] (UVA irradiation time 5 minutes) and with baculovirus [1] (setting [8]) was 0 each time. In addition, the “baculovirus titer of culture supernatant” value with baculovirus [2] (ten-minute UVA) and in the experiment with baculovirus [2] (twenty-minute UVA) was “no detectible baculovirus titer” each time. For the same compound, the “xenogenic HLA A2.1, B7-1, B7-2, and β2m transcripts” value in experiment [3] was “absence of detectable levels”. Moreover, the “percentage of CD8^+ T cells stained with K^b/OVA tetramer versus non-treated xAPCs” value in the experiment with CD8^+ T cells [4] (MyD88 knock-out (MyD88^−/−) mice) is reported as “no increase”; in the experiment on CD8^+ T cells [4] (wild type (C57BL/6 (B6)) mice) it was “higher percentage”. Also, the “expression of HLA-A2, B7-1, and ICAM-1 in cocultures” value in the experiment with HLA-A2, B7-1, and ICAM-1 is on record as “undetectable levels”. Besides, in experiment [5] (5 μg/ml for 10 minutes, dilutions 10^−1 to 10^−9, three-day incubation), the “infection and lysis of indicator cell culture by serial dilutions of viral stock” value is “almost completely incapable of infecting and lysing the indicator cell culture at all but the lowest dilution tested”. In addition, in experiment [5] (viral stock treated 5 μg/ml for 10 minutes, three-day incubation), the “indicator cell infection or lysis by microscopy” value is on record as “failed to result in any observable indicator cell infection or lysis”. Besides, the “Percent p/MHC tetramers of CD8^+ T cells (% Tetr + CD8^+)” value in the experiment on CD8^+ T cells [6] (Donor 1, MART-1 tetramer) is given as 0.95%; in the experiment with CD8^+ T cells [6] (Donor 2, MART-1 tetramer) it was 11.55%; with CD8^+ T cells [6] (Donor 3, MART-1 tetramer), 15.07%; with CD8^+ T cells [6] (Donor 4, MART-1 tetramer), 43.33%. The “inactivation of Drosophila cells” value in the experiment on Drosophila clone B xAPCs (8-MOPs plus 1 Joule/cm^2 for 2 minutes) is recorded as “sufficient to inactivate Drosophila cells”. In addition, the cytotoxicity at 5 µg/mL in the experiment with Drosophila clone B xAPCs (Drosophila melanogaster, light or radiation study, read-out: inhibition of viability of xAPC cultures) is about 50%. Also, in the experiment on Drosophila clone B xAPCs (two weeks after UVADEX/UVA treatment, any treated culture), the “viable xAPCs detected” value is on record as “almost no viable cells were detected”. In addition, the “surface expression level of the three exogenous molecules” value in the experiment on HLA-A2, B7-1, or ICAM-1 is given as “essentially the same”.

Regarding `O=CCCCC=O` [glutaraldehyde], in the experiment on CD8^+ T cells [7], the “CD8^+ T cell activation, less than unfixed cells” value was found to be 2 fold; the “antigen-specific proliferation of CD8^+ T cells, less than unfixed cells” value was 2.5- to 6 fold; the “generation of CD8^+ T cells capable of lysing target cells” value is listed as “to a lesser degree than unfixed cells”.
